Test results from US10206394B2, “Herbicidal compounds” (Syngenta Participations AG, priority 2014, dated 2019).
Where two headings read alike, the source gives them in different places.

Key:
Assay in all cases: Glasshouse assay for herbicidal activity (pre- and post-emergence), percentage phytotoxicity
Type in all cases: in vivo
Avena fatua (AVEFA) = conditions: Avena fatua
Procedure, shortened: (§1)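 Damage was rated visually as percent phytotoxicity, 100% meaning total kill, 20 days after pre-emergence application (made one day post-sowing) or 15 days after post-emergence application (made about 12 days post-sowing). Plants were grown under 16 h light, 65% humidity, warm species 24/18° C, cool 20/16° C.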

Lolium perenne (LOLPE) = conditions: Lolium perenne
Procedure, shortened: as §1

[1] = test system: Alopecurus myosuroides (ALOMY); conditions: Alopecurus myosuroides
Procedure, shortened: as §1

[2] = test system: Echinochloa crus-galli (ECHCG); conditions: Echinochloa crus-galli
Procedure, shortened: as §1

[3] = post-emergence, 360 h, 250 g/ha, post-emergence, 15 DAA, visual assessment (100%=total damage, 0%=no damage), read-out: Post-emergence herbicidal activity (percentage phytotoxicity) AVEFA POST
[4] = pre-emergence, 480 h, 250 g/ha, pre-emergence, 20 DAA, visual assessment (100%=total damage, 0%=no damage), read-out: Pre-emergence herbicidal activity (percentage phytotoxicity) AVEFA PRE
[5] = post-emergence, 360 h, 250 g/ha, post-emergence, 15 DAA, visual assessment (100%=total damage, 0%=no damage), read-out: Post-emergence herbicidal activity (percentage phytotoxicity) LOLPE POST
[6] = pre-emergence, 480 h, 250 g/ha, pre-emergence, 20 DAA, visual assessment (100%=total damage, 0%=no damage), read-out: Pre-emergence herbicidal activity (percentage phytotoxicity) LOLPE PRE
[7] = post-emergence, 360 h, 250 g/ha, post-emergence, 15 DAA, visual assessment (100%=total damage, 0%=no damage), read-out: Post-emergence herbicidal activity (percentage phytotoxicity) ALOMY POST
[8] = pre-emergence, 480 h, 250 g/ha, pre-emergence, 20 DAA, visual assessment (100%=total damage, 0%=no damage), read-out: Pre-emergence herbicidal activity (percentage phytotoxicity) ALOMY PRE
[9] = post-emergence, 360 h, 250 g/ha, post-emergence, 15 DAA, visual assessment (100%=total damage, 0%=no damage), read-out: Post-emergence herbicidal activity (percentage phytotoxicity) ECHCG POST
[10] = pre-emergence, 480 h, 250 g/ha, pre-emergence, 20 DAA, visual assessment (100%=total damage, 0%=no damage), read-out: Pre-emergence herbicidal activity (percentage phytotoxicity) ECHCG PRE
[11] = post-emergence, 360 h, Rate 250 g/ha, post-emergence, visual assessment 15 DAA, 100%=total damage, 0%=no damage, read-out: Post-emergence herbicidal activity (percentage phytotoxicity) AVEFA POST
[12] = pre-emergence, 480 h, Rate 250 g/ha, pre-emergence, visual assessment 20 DAA, 100%=total damage, 0%=no damage, read-out: Pre-emergence herbicidal activity (percentage phytotoxicity) AVEFA PRE
[13] = post-emergence, 360 h, Rate 250 g/ha, post-emergence, visual assessment 15 DAA, 100%=total damage, 0%=no damage, read-out: Post-emergence herbicidal activity (percentage phytotoxicity) LOLPE POST
[14] = pre-emergence, 480 h, Rate 250 g/ha, pre-emergence, visual assessment 20 DAA, 100%=total damage, 0%=no damage, read-out: Pre-emergence herbicidal activity (percentage phytotoxicity) LOLPE PRE
[15] = post-emergence, 360 h, Rate 250 g/ha, post-emergence, visual assessment 15 DAA, 100%=total damage, 0%=no damage, read-out: Post-emergence herbicidal activity (percentage phytotoxicity) ALOMY POST
[16] = pre-emergence, 480 h, Rate 250 g/ha, pre-emergence, visual assessment 20 DAA, 100%=total damage, 0%=no damage, read-out: Pre-emergence herbicidal activity (percentage phytotoxicity) ALOMY PRE
[17] = post-emergence, 360 h, Rate 250 g/ha, post-emergence, visual assessment 15 DAA, 100%=total damage, 0%=no damage, read-out: Post-emergence herbicidal activity (percentage phytotoxicity) ECHCG POST
[18] = pre-emergence, 480 h, Rate 250 g/ha, pre-emergence, visual assessment 20 DAA, 100%=total damage, 0%=no damage, read-out: Pre-emergence herbicidal activity (percentage phytotoxicity) ECHCG PRE

SMILES	pest or weed control at 250 g/ha (Avena fatua (AVEFA); [3]) [%]	pest or weed control at 250 g/ha (Avena fatua (AVEFA); [4]) [%]	pest or weed control at 250 g/ha (Lolium perenne (LOLPE); [5]) [%]	pest or weed control at 250 g/ha (Lolium perenne (LOLPE); [6]) [%]	pest or weed control at 250 g/ha [1, 7] [%]	pest or weed control at 250 g/ha [1, 8] [%]	pest or weed control at 250 g/ha [2, 9] [%]	pest or weed control at 250 g/ha [2, 10] [%]	pest or weed control at 250 g/ha (Avena fatua (AVEFA); [11]) [%]	pest or weed control at 250 g/ha (Avena fatua (AVEFA); [12]) [%]	pest or weed control at 250 g/ha (Lolium perenne (LOLPE); [13]) [%]	pest or weed control at 250 g/ha (Lolium perenne (LOLPE); [14]) [%]	pest or weed control at 250 g/ha [1, 15] [%]	pest or weed control at 250 g/ha [1, 16] [%]	pest or weed control at 250 g/ha [2, 17] [%]	pest or weed control at 250 g/ha [2, 18] [%]	other results
Cc1cc(C)c(C2C(=O)CC(CC(=O)NCc3cccc(Cl)c3)C2=O)c(C)c1 (stereo not drawn) [Compound A96]	–	–	–	–	–	–	–	–	–	–	–	–	–	–	–	–	pest or weed control at 250 g/ha (Avena fatua (AVEFA); post-emergence, 360 h, Rate 250 g/ha, post-emergence, assessed visually 15 DAA, 100%=total damage, 0%=no damage, read-out: Post-emergence herbicidal activity (percentage phytotoxicity) AVEFA POST): 80%; pest or weed control at 250 g/ha (Avena fatua (AVEFA); pre-emergence, 480 h, Rate 250 g/ha, pre-emergence, assessed visually 20 DAA, 100%=total damage, 0%=no damage, read-out: Pre-emergence herbicidal activity (percentage phytotoxicity) AVEFA PRE): 70%; pest or weed control at 250 g/ha (Lolium perenne (LOLPE); post-emergence, 360 h, Rate 250 g/ha, post-emergence, assessed visually 15 DAA, 100%=total damage, 0%=no damage, read-out: Post-emergence herbicidal activity (percentage phytotoxicity) LOLPE POST): 100%; pest or weed control at 250 g/ha (Lolium perenne (LOLPE); pre-emergence, 480 h, Rate 250 g/ha, pre-emergence, assessed visually 20 DAA, 100%=total damage, 0%=no damage, read-out: Pre-emergence herbicidal activity (percentage phytotoxicity) LOLPE PRE): 100%; pest or weed control at 250 g/ha ([1]; post-emergence, 360 h, Rate 250 g/ha, post-emergence, assessed visually 15 DAA, 100%=total damage, 0%=no damage, read-out: Post-emergence herbicidal activity (percentage phytotoxicity) ALOMY POST): 80%; pest or weed control at 250 g/ha ([1]; pre-emergence, 480 h, Rate 250 g/ha, pre-emergence, assessed visually 20 DAA, 100%=total damage, 0%=no damage, read-out: Pre-emergence herbicidal activity (percentage phytotoxicity) ALOMY PRE): 100%; pest or weed control at 250 g/ha ([2]; post-emergence, 360 h, Rate 250 g/ha, post-emergence, assessed visually 15 DAA, 100%=total damage, 0%=no damage, read-out: Post-emergence herbicidal activity (percentage phytotoxicity) ECHCG POST): 80%; pest or weed control at 250 g/ha ([2]; pre-emergence, 480 h, Rate 250 g/ha, pre-emergence, assessed visually 20 DAA, 100%=total damage, 0%=no damage, read-out: Pre-emergence herbicidal activity (percentage phytotoxicity) ECHCG PRE): 100%
C=CCNC(=O)CC1CC(=O)C(c2c(C)cc(Br)cc2C)C1=O (stereo not drawn) [Compound B117]	70	20	70	70	80	70	70	70	–	–	–	–	–	–	–	–	–
Cc1cc(C)c(C2=C(OC(=O)C(C)(C)C)CC(CC(=O)N(C(=O)C(C)(C)C)C3(C)COC3)C2=O)c(C)c1 (stereo not drawn) [Compound P14]	–	–	–	–	–	–	–	–	80	10	80	70	80	70	70	70	–
Cc1cc(-n2ncc(Cl)c2C)cc(C)c1C1C(=O)CC(CC(=O)NC(C)(C)C)C1=O (stereo not drawn) [Compound B104]	80	10	70	10	80	40	70	20	–	–	–	–	–	–	–	–	–
C#CCNC(=O)CC1CC(=O)C(c2c(C)cc(-c3ccc(F)cn3)cc2C)C1=O (stereo not drawn) [Compound B387]	–	–	–	–	–	–	–	–	100	100	90	90	90	90	90	100	–
COCC(C)(C)NC(=O)CC1CC(=O)C(c2c(C)cc(-c3ncc(F)cc3F)cc2C)C1=O (stereo not drawn) [Compound B329]	–	–	–	–	–	–	–	–	–	–	–	–	–	–	–	–	pest or weed control at 250 g/ha (Avena fatua (AVEFA); post-emergence, 360 h, POST-emergence, rate 250 g/ha, visual score 15 DAA (100%=total damage, 0%=no damage), read-out: Post-emergence herbicidal activity (percentage phytotoxicity) AVEFA POST): 100%; pest or weed control at 250 g/ha (Avena fatua (AVEFA); pre-emergence, 480 h, PRE-emergence, rate 250 g/ha, visual score 20 DAA (100%=total damage, 0%=no damage), read-out: Pre-emergence herbicidal activity (percentage phytotoxicity) AVEFA PRE): 80%; pest or weed control at 250 g/ha (Lolium perenne (LOLPE); post-emergence, 360 h, POST-emergence, rate 250 g/ha, visual score 15 DAA (100%=total damage, 0%=no damage), read-out: Post-emergence herbicidal activity (percentage phytotoxicity) LOLPE POST): 100%; pest or weed control at 250 g/ha (Lolium perenne (LOLPE); pre-emergence, 480 h, PRE-emergence, rate 250 g/ha, visual score 20 DAA (100%=total damage, 0%=no damage), read-out: Pre-emergence herbicidal activity (percentage phytotoxicity) LOLPE PRE): 100%; pest or weed control at 250 g/ha ([1]; post-emergence, 360 h, POST-emergence, rate 250 g/ha, visual score 15 DAA (100%=total damage, 0%=no damage), read-out: Post-emergence herbicidal activity (percentage phytotoxicity) ALOMY POST): 100%; pest or weed control at 250 g/ha ([1]; pre-emergence, 480 h, PRE-emergence, rate 250 g/ha, visual score 20 DAA (100%=total damage, 0%=no damage), read-out: Pre-emergence herbicidal activity (percentage phytotoxicity) ALOMY PRE): 100%; pest or weed control at 250 g/ha ([2]; post-emergence, 360 h, POST-emergence, rate 250 g/ha, visual score 15 DAA (100%=total damage, 0%=no damage), read-out: Post-emergence herbicidal activity (percentage phytotoxicity) ECHCG POST): 100%; pest or weed control at 250 g/ha ([2]; pre-emergence, 480 h, PRE-emergence, rate 250 g/ha, visual score 20 DAA (100%=total damage, 0%=no damage), read-out: Pre-emergence herbicidal activity (percentage phytotoxicity) ECHCG PRE): 100%
